According to ChEMBL document CHEMBL5230082, “Recent advances in steroid amino acid conjugates: Old scaffolds with new dimensions” (Eur J Med Chem, 2020):
≈ marks a conversion by molar mass, not a printed value.

Key:
MCF7 = assay: Antiproliferative activity against human MCF7 by MTT assay; assay type: functional, cell-based
Escherichia coli = assay: Antibacterial activity against Escherichia coli; assay type: functional
[1] = biological target: T1, Ileal sodium/bile acid cotransporter (Homo sapiens, UniProt Q12908); assay: Binding affinity to ASBT (unknown origin) assessed as inhibition constant
T1 sequence (Q12908 whole entry): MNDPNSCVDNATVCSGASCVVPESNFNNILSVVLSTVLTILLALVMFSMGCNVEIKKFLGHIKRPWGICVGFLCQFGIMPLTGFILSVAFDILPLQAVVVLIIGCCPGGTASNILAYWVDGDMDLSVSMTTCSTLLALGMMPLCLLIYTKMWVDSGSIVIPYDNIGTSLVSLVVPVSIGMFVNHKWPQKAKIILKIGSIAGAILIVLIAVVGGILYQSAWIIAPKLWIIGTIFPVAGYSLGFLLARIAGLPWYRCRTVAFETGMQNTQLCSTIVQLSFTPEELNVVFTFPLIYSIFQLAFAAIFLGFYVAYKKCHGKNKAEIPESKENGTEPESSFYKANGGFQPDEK

[2] = biological target: T2, Hepatic sodium/bile acid cotransporter (Homo sapiens, UniProt Q14973); assay: Binding affinity to NTCP (unknown origin) assessed as inhibition constant
T2 sequence (Q14973 whole entry): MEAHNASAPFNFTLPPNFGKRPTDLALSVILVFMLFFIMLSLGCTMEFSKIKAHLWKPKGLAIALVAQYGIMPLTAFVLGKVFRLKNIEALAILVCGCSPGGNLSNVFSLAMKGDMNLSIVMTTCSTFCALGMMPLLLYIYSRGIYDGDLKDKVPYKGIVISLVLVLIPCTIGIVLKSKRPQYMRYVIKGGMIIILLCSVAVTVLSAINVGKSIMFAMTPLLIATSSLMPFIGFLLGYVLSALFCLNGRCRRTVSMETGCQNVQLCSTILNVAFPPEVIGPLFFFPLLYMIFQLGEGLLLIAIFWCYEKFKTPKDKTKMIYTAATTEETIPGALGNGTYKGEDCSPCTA

MDA-MB-231 = assay: Anticancer activity against human MDA-MB-231 cells assessed as growth inhibition; assay type: functional

C[C@H](CCC(=O)N[C@@H](CCCCNC(=O)CC[C@H](C)[C@H]1CC[C@H]2[C@@H]3CC[C@@H]4C[C@H](O)CC[C@]4(C)[C@H]3C[C@H](O)[C@]12C)C(=O)O)[C@H]1CC[C@H]2[C@@H]3CC[C@@H]4C[C@H](O)CC[C@]4(C)[C@H]3C[C@H](O)[C@]12C
IC50 (MCF7): > 50 µM

COC(=O)[C@H](CCCCNC(=O)CC[C@H](C)[C@H]1CC[C@H]2[C@@H]3[C@H](O)C[C@@H]4C[C@H](O)CC[C@]4(C)[C@H]3C[C@H](O)[C@]12C)NC(=O)CC[C@@H](C)[C@H]1CC[C@H]2[C@@H]3[C@H](O)C[C@@H]4C[C@H](O)CC[C@]4(C)[C@H]3C[C@H](O)[C@]12C
IC50 (MCF7): < 10 µM

CCCCCCCCNCCC[C@@H](C)[C@H]1CC[C@H]2[C@@H]3[C@H](OCCCNC(=N)N)C[C@@H]4C[C@H](OCCCNC(=N)N)CC[C@]4(C)[C@H]3C[C@H](OCCCNC(=N)N)[C@]12C
MIC (Escherichia coli): 1 mg/L (≈ 1.24 µM)

C[C@H](CCC(=O)NCC(=O)O)[C@H]1CC[C@H]2[C@@H]3[C@H](OC(=O)c4cccnc4)C[C@@H]4C[C@H](O)CC[C@]4(C)[C@H]3CC[C@]12C
Ki [1]: 15.6 µM | Ki [2]: 9.29 µM

C[C@H](CCC(=O)NCC(=O)O)[C@H]1CC[C@H]2[C@@H]3C(=O)C[C@@H]4C[C@H](O)CC[C@]4(C)[C@H]3CC[C@]12C
Ki [1]: 20.4 µM | Ki [2]: 4.21 µM

CC[C@H](C)[C@H](NC(=O)CC[C@@H](C)[C@H]1CC[C@H]2[C@@H]3[C@H](O)C[C@@H]4C[C@H](O)CC[C@]4(C)[C@H]3C[C@H](O)[C@]12C)C(=O)Nc1nc2ccccc2s1
GI50 (MDA-MB-231): 1.41 µM

C[C@H](CCC(=O)N[C@@H](CCCCNC(=O)CC[C@H](C)[C@H]1CC[C@H]2[C@@H]3[C@H](O)C[C@@H]4C[C@H](O)CC[C@]4(C)[C@H]3C[C@H](O)[C@]12C)C(=O)O)[C@H]1CC[C@H]2[C@@H]3[C@H](O)C[C@@H]4C[C@H](O)CC[C@]4(C)[C@H]3C[C@H](O)[C@]12C
IC50 (MCF7): > 50 µM

C[C@H](CCC(=O)NCC(=O)O)[C@H]1CC[C@H]2[C@@H]3[C@@H](OC(=O)c4cccnc4)C[C@@H]4C[C@H](O)CC[C@]4(C)[C@H]3CC[C@]12C
Ki [1]: 15.2 µM | Ki [2]: 11.8 µM

C[C@H](CCC(=O)NCC(=O)O)[C@H]1CC[C@H]2[C@@H]3[C@H](O)C[C@@H]4C[C@H](OC(=O)c5cccnc5)CC[C@]4(C)[C@H]3CC[C@]12C
Ki [1]: 6.45 µM | Ki [2]: 5.38 µM

CCCCCCCCNCCC[C@@H](C)[C@H]1CC[C@H]2[C@@H]3[C@H](OCCCN)C[C@@H]4C[C@H](OCCCN)CC[C@]4(C)[C@H]3C[C@H](OCCCN)[C@]12C
MIC (Escherichia coli): 1.5 mg/L (≈ 2.22 µM)

COC(=O)[C@H](CCCCNC(=O)CC[C@H](C)[C@H]1CC[C@H]2[C@@H]3CC[C@@H]4C[C@H](OC(C)=O)CC[C@]4(C)[C@H]3C[C@H](OC(C)=O)[C@]12C)NC(=O)CC[C@@H](C)[C@H]1CC[C@H]2[C@@H]3CC[C@@H]4C[C@H](OC(C)=O)CC[C@]4(C)[C@H]3C[C@H](OC(C)=O)[C@]12C
IC50 (MCF7): > 100 µM

POLYMYXIN B
MIC (Escherichia coli): 1.8 mg/L

COC(=O)[C@H](CCCCNC(=O)CC[C@H](C)[C@H]1CC[C@H]2[C@@H]3CC[C@@H]4C[C@H](O)CC[C@]4(C)[C@H]3C[C@H](O)[C@]12C)NC(=O)CC[C@@H](C)[C@H]1CC[C@H]2[C@@H]3CC[C@@H]4C[C@H](O)CC[C@]4(C)[C@H]3C[C@H](O)[C@]12C
IC50 (MCF7): < 10 µM

C[C@H](CCC(=O)NCC(=O)O)[C@H]1CC[C@H]2[C@@H]3[C@@H](OC(=O)c4ccc(F)cc4)C[C@@H]4C[C@H](O)CC[C@]4(C)[C@H]3CC[C@]12C
Ki [1]: 8.39 µM | Ki [2]: 2.55 µM
